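All cell lines were grown in 96-well plates and treated with compound for 48 hours. Abbreviation: GI50, concentration required for 50% inhibition of growth. The concentration for full growth arrest is given as TGI.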
Key:
Test in all cases: NCI-60 cell line screen, 48 h; in the data active = GI50 below about 0.43 µM; inactive = the rest
HL-60(TB) leukemia = system: HL-60(TB) leukemia
U251 CNS = system: U251 CNS
HCC-2998 colon = system: HCC-2998 colon
HOP-92 NSCLC = system: HOP-92 NSCLC
BT-549 breast = system: BT-549 breast
UO-31 renal = system: UO-31 renal
SR leukemia = system: SR leukemia
OVCAR-3 ovarian = system: OVCAR-3 ovarian
UACC-62 melanoma = system: UACC-62 melanoma
SK-MEL-5 melanoma = system: SK-MEL-5 melanoma
OVCAR-5 ovarian = system: OVCAR-5 ovarian
COLO 205 colon = system: COLO 205 colon
NCI/ADR-RES ovarian = system: NCI/ADR-RES ovarian
MCF7 breast = system: MCF7 breast
UACC-257 melanoma = system: UACC-257 melanoma
SN12C renal = system: SN12C renal
NCI-H460 lung = system: NCI-H460 lung
A549 NSCLC = system: A549 NSCLC
KM12 colon = system: KM12 colon
DU-145 prostate = system: DU-145 prostate
MALME-3M melanoma = system: MALME-3M melanoma
NCI-H522 lung = system: NCI-H522 lung
MOLT-4 leukemia = system: MOLT-4 leukemia
OVCAR-4 ovarian = system: OVCAR-4 ovarian
SNB-75 CNS = system: SNB-75 CNS
SF-295 CNS = system: SF-295 CNS
SF-268 CNS = system: SF-268 CNS
NCI-H23 lung = system: NCI-H23 lung
TK-10 renal = system: TK-10 renal
IGROV1 ovarian = system: IGROV1 ovarian
M14 melanoma = system: M14 melanoma
HCT-15 colon = system: HCT-15 colon
CAKI-1 renal = system: CAKI-1 renal
RPMI-8226 leukemia = system: RPMI-8226 leukemia
RXF 393 renal = system: RXF 393 renal
ACHN renal = system: ACHN renal
MDA-MB-231 breast = system: MDA-MB-231 breast
LOX IMVI melanoma = system: LOX IMVI melanoma
SNB-19 CNS = system: SNB-19 CNS
SK-OV-3 ovarian = system: SK-OV-3 ovarian
SK-MEL-28 melanoma = system: SK-MEL-28 melanoma
NCI-H226 lung = system: NCI-H226 lung
HCT-116 colon = system: HCT-116 colon
K-562 leukemia = system: K-562 leukemia
MDA-MB-435 = system: MDA-MB-435
HS 578T breast = system: HS 578T breast
HOP-62 NSCLC = system: HOP-62 NSCLC
PC-3 prostate = system: PC-3 prostate
EKVX NSCLC = system: EKVX NSCLC
HT29 colon = system: HT29 colon
SW-620 colon = system: SW-620 colon
OVCAR-8 ovarian = system: OVCAR-8 ovarian
SF-539 CNS = system: SF-539 CNS
SK-MEL-2 melanoma = system: SK-MEL-2 melanoma
T-47D breast = system: T-47D breast
A498 renal = system: A498 renal
786-0 renal = system: 786-0 renal
CCRF-CEM leukemia = system: CCRF-CEM leukemia

Cc1[nH]nc(C(=O)Nc2n[nH]c3ccccc23)c1[N+](=O)[O-]
> 96.1 µM: TGI (HL-60(TB) leukemia)
> 49.3 µM: TGI (SR leukemia)
inactive: GI50 (HL-60(TB) leukemia) > 63 µM | GI50 (U251 CNS) > 100 µM | GI50 (HCC-2998 colon) > 100 µM | GI50 (HOP-92 NSCLC) > 100 µM | GI50 (BT-549 breast) 26.5 µM | GI50 (UO-31 renal) > 100 µM | GI50 (OVCAR-3 ovarian) > 100 µM | GI50 (UACC-62 melanoma) > 93.7 µM | GI50 (SK-MEL-5 melanoma) > 60.1 µM | GI50 (OVCAR-5 ovarian) > 100 µM | GI50 (COLO 205 colon) 63.4 µM | GI50 (NCI/ADR-RES ovarian) > 100 µM | GI50 (MCF7 breast) 53.3 µM | GI50 (UACC-257 melanoma) > 100 µM | GI50 (SN12C renal) > 100 µM | GI50 (NCI-H460 lung) > 85.1 µM | GI50 (A549 NSCLC) > 66.6 µM | GI50 (KM12 colon) > 100 µM | GI50 (DU-145 prostate) > 79.7 µM | GI50 (MALME-3M melanoma) > 100 µM | GI50 (NCI-H522 lung) 39.4 µM | GI50 (MOLT-4 leukemia) > 62.5 µM | GI50 (OVCAR-4 ovarian) > 100 µM | GI50 (SNB-75 CNS) 64.1 µM | GI50 (SF-295 CNS) > 100 µM | GI50 (SF-268 CNS) > 100 µM | GI50 (NCI-H23 lung) > 66.9 µM | GI50 (TK-10 renal) > 100 µM | GI50 (IGROV1 ovarian) > 100 µM | GI50 (M14 melanoma) > 96.2 µM | GI50 (HCT-15 colon) 33.4 µM | GI50 (CAKI-1 renal) > 100 µM | GI50 (RPMI-8226 leukemia) > 71.5 µM | GI50 (RXF 393 renal) > 100 µM | GI50 (ACHN renal) > 100 µM | GI50 (MDA-MB-231 breast) > 100 µM | GI50 (LOX IMVI melanoma) > 100 µM | GI50 (SNB-19 CNS) > 100 µM | GI50 (SK-OV-3 ovarian) > 100 µM | GI50 (SK-MEL-28 melanoma) > 100 µM | GI50 (NCI-H226 lung) > 100 µM | GI50 (HCT-116 colon) > 100 µM | GI50 (K-562 leukemia) > 100 µM | GI50 (MDA-MB-435) > 100 µM | GI50 (HS 578T breast) > 68.7 µM | GI50 (HOP-62 NSCLC) > 100 µM | GI50 (PC-3 prostate) > 100 µM | GI50 (EKVX NSCLC) > 100 µM | GI50 (HT29 colon) > 100 µM | GI50 (SW-620 colon) > 100 µM | GI50 (OVCAR-8 ovarian) > 100 µM | GI50 (SF-539 CNS) > 100 µM | GI50 (SK-MEL-2 melanoma) > 100 µM | GI50 (T-47D breast) > 100 µM | GI50 (A498 renal) > 76.6 µM | GI50 (786-0 renal) > 100 µM
> 100 µM: TGI (U251 CNS) | TGI (HCC-2998 colon) | TGI (HOP-92 NSCLC) | TGI (BT-549 breast) | TGI (UO-31 renal) | TGI (OVCAR-3 ovarian) | TGI (UACC-62 melanoma) | TGI (SK-MEL-5 melanoma) | TGI (OVCAR-5 ovarian) | TGI (COLO 205 colon) | TGI (NCI/ADR-RES ovarian) | TGI (MCF7 breast) | TGI (UACC-257 melanoma) | TGI (SN12C renal) | TGI (NCI-H460 lung) | TGI (A549 NSCLC) | TGI (KM12 colon) | TGI (DU-145 prostate) | TGI (MALME-3M melanoma) | TGI (NCI-H522 lung) | TGI (OVCAR-4 ovarian) | TGI (SNB-75 CNS) | TGI (SF-295 CNS) | TGI (SF-268 CNS) | TGI (NCI-H23 lung) | TGI (TK-10 renal) | TGI (IGROV1 ovarian) | TGI (M14 melanoma) | TGI (HCT-15 colon) | TGI (CAKI-1 renal) | TGI (RPMI-8226 leukemia) | TGI (RXF 393 renal) | TGI (ACHN renal) | TGI (MDA-MB-231 breast) | TGI (LOX IMVI melanoma) | TGI (SNB-19 CNS) | TGI (SK-OV-3 ovarian) | TGI (SK-MEL-28 melanoma) | TGI (NCI-H226 lung) | TGI (HCT-116 colon) | TGI (K-562 leukemia) | TGI (MDA-MB-435) | TGI (HS 578T breast) | TGI (HOP-62 NSCLC) | TGI (PC-3 prostate) | TGI (EKVX NSCLC) | TGI (HT29 colon) | TGI (SW-620 colon) | TGI (OVCAR-8 ovarian) | TGI (SF-539 CNS) | TGI (SK-MEL-2 melanoma) | TGI (T-47D breast) | TGI (A498 renal) | TGI (786-0 renal)
97.7 µM: TGI (MOLT-4 leukemia)

Nc1c(O)c(S(=O)(=O)O)c(O)c2c1C(=O)c1ccccc1C2=O
> 100 µM: TGI (DU-145 prostate) | TGI (SF-268 CNS) | TGI (IGROV1 ovarian) | TGI (M14 melanoma) | TGI (RXF 393 renal) | TGI (SK-MEL-28 melanoma) | TGI (NCI-H226 lung) | TGI (MDA-MB-435) | TGI (HS 578T breast) | TGI (HOP-62 NSCLC) | TGI (EKVX NSCLC) | TGI (SW-620 colon)
9.73 µM: TGI (TK-10 renal)
12.8 µM: TGI (KM12 colon)
65.6 µM: TGI (UACC-62 melanoma)
11.6 µM: TGI (SN12C renal)
6.8 µM: TGI (ACHN renal)
30.6 µM: TGI (SF-539 CNS)
6.33 µM: TGI (UACC-257 melanoma)
13.4 µM: TGI (OVCAR-8 ovarian)
inactive: GI50 (HL-60(TB) leukemia) 1.56 µM | GI50 (U251 CNS) 3.09 µM | GI50 (HCC-2998 colon) 2.84 µM | GI50 (HOP-92 NSCLC) 1.5 µM | GI50 (BT-549 breast) 2.78 µM | GI50 (UO-31 renal) 2.47 µM | GI50 (SR leukemia) 2.03 µM | GI50 (OVCAR-3 ovarian) 2.94 µM | GI50 (UACC-62 melanoma) 3.21 µM | GI50 (SK-MEL-5 melanoma) 1.97 µM | GI50 (OVCAR-5 ovarian) 3.22 µM | GI50 (COLO 205 colon) 1.61 µM | GI50 (NCI/ADR-RES ovarian) 2.99 µM | GI50 (MCF7 breast) 2.5 µM | GI50 (UACC-257 melanoma) 2.38 µM | GI50 (SN12C renal) 3.29 µM | GI50 (NCI-H460 lung) 2.86 µM | GI50 (A549 NSCLC) 2.9 µM | GI50 (KM12 colon) 2.94 µM | GI50 (DU-145 prostate) 3.8 µM | GI50 (MALME-3M melanoma) 2.61 µM | GI50 (NCI-H522 lung) 2.68 µM | GI50 (MOLT-4 leukemia) 1.9 µM | GI50 (OVCAR-4 ovarian) 3.06 µM | GI50 (SF-295 CNS) 2.32 µM | GI50 (SF-268 CNS) 3.44 µM | GI50 (NCI-H23 lung) 2.82 µM | GI50 (TK-10 renal) 2.91 µM | GI50 (IGROV1 ovarian) 3.29 µM | GI50 (M14 melanoma) 3.95 µM | GI50 (HCT-15 colon) 2.64 µM | GI50 (CAKI-1 renal) 2.34 µM | GI50 (RPMI-8226 leukemia) 2.53 µM | GI50 (RXF 393 renal) 3.37 µM | GI50 (ACHN renal) 2.43 µM | GI50 (MDA-MB-231 breast) 5.85 µM | GI50 (LOX IMVI melanoma) 3.08 µM | GI50 (SNB-19 CNS) 3.8 µM | GI50 (SK-OV-3 ovarian) 1.98 µM | GI50 (CCRF-CEM leukemia) 3.1 µM | GI50 (SK-MEL-28 melanoma) 4.09 µM | GI50 (NCI-H226 lung) 4.12 µM | GI50 (HCT-116 colon) 2.78 µM | GI50 (K-562 leukemia) 3.13 µM | GI50 (MDA-MB-435) 3.33 µM | GI50 (HS 578T breast) 4.69 µM | GI50 (HOP-62 NSCLC) 2.92 µM | GI50 (PC-3 prostate) 2.32 µM | GI50 (EKVX NSCLC) 3.09 µM | GI50 (HT29 colon) 2.72 µM | GI50 (SW-620 colon) 3.24 µM | GI50 (OVCAR-8 ovarian) 2.98 µM | GI50 (SF-539 CNS) 6.36 µM | GI50 (SK-MEL-2 melanoma) 2.25 µM | GI50 (T-47D breast) 2.36 µM | GI50 (A498 renal) 2.33 µM | GI50 (786-0 renal) 4.73 µM
4.65 µM: TGI (HOP-92 NSCLC)
9.17 µM: TGI (NCI-H522 lung)
4.91 µM: TGI (MOLT-4 leukemia)
7.17 µM: TGI (SR leukemia)
10.4 µM: TGI (HT29 colon)
7.53 µM: TGI (A498 renal)
8.94 µM: TGI (BT-549 breast)
12.3 µM: TGI (LOX IMVI melanoma)
13.9 µM: TGI (NCI/ADR-RES ovarian) | TGI (K-562 leukemia)
7.26 µM: TGI (CAKI-1 renal)
8.13 µM: TGI (MCF7 breast)
4.07 µM: TGI (SK-MEL-5 melanoma)
11.1 µM: TGI (U251 CNS)
7.37 µM: TGI (T-47D breast)
9.13 µM: TGI (UO-31 renal)
52.4 µM: TGI (SNB-19 CNS)
9.88 µM: TGI (NCI-H23 lung)
3.01 µM: TGI (COLO 205 colon)
28.1 µM: TGI (MDA-MB-231 breast)
22 µM: TGI (NCI-H460 lung)
7.77 µM: TGI (RPMI-8226 leukemia)
7.87 µM: TGI (PC-3 prostate)
11 µM: TGI (CCRF-CEM leukemia)
11.2 µM: TGI (HCT-15 colon)
8.36 µM: TGI (MALME-3M melanoma)
12 µM: TGI (A549 NSCLC)
10.9 µM: TGI (HCT-116 colon)
5.36 µM: TGI (SK-OV-3 ovarian)
14.5 µM: TGI (OVCAR-3 ovarian)
32.8 µM: TGI (HCC-2998 colon)
6.21 µM: TGI (SK-MEL-2 melanoma)
3.65 µM: TGI (HL-60(TB) leukemia)
32.5 µM: TGI (OVCAR-5 ovarian)
7.27 µM: TGI (SF-295 CNS)
20.8 µM: TGI (OVCAR-4 ovarian)
41.3 µM: TGI (786-0 renal)
